We go through two compounds from PMC12737022, “Evaluations of Sex Differences in Dosimetry in Rats Following Perfluorohexanesulfonamide (PFHxSA) Oral Exposure” (Toxics, 2025).

The nature of data set [1]: Ultracentrifugation plasma protein binding assay, rat plasma. The note with it: for fraction unbound at 1 h, 10 µM: both sexes, SD. In kind it is in vitro ADME. The procedure: Human and rat plasma were evaluated for plasma protein binding of PFHxSA and PFHxS using ultracentrifugation. Data generated in human plasma were obtained from an earlier study; for this study, data were generated in rat plasma following the same protocol as described by Smeltz et al.. SD rat plasma (pooled, mixed sex) was obtained from a commercial vendor (BioIVT, Westbury, NY, USA). Briefly, PFHxSA and PFHxS were added to the plasma to achieve a final assay concentration of 10 µM. Following a 1 h 37 °C incubation, 1 mL aliquots from each plasma solution were drawn in triplicate and transferred to polycarbonate ultracentrifuge tubes. These samples underwent ultracentrifugation (Beckman OptimaMax; Beckman Coulter Inc., Indianapolis, IN, USA) at 850,000× g for 4 h at 37 °C; after completion, the aqueous fraction (AF) was collected by transferring the supernatant to a new tube. Two sets of samples of the original PFAS-spiked whole plasma were also collected after a 1 h or a 5 h incubation at 37 °C. All samples were combined with 3 volumes of ice-cold ACN containing relevant internal standard, vigorously mixed, then centrifuged at 12,000× g for 10 min at 4 °C. Supernatants were collected and then stored at <−70 °C until analysis.
Targeted, quantitative analysis of in vitro hepatocyte metabolic stability and plasma protein binding assay samples was conducted on a Waters (Milford, MA, USA) Xevo-TQS micro ultra-high-performance liquid chromatography tandem mass spectrometry system (UPLC-MS/MS), modified with a PFAS analysis kit. Samples were analyzed in negative ion mode with UniSpray ionization. Samples were analyzed in triplicate, with a reference compound included to evaluate assay performance. A CORTECS T3 column (Waters; 3 mm × 100 mm, 2.7 µm) was used for chromatographic separation with a flow rate of 0.6 mL/min and a temperature of 55 °C. Gradient elution was used with mobile phase A (95:5 H2O/ACN) and mobile phase B (95:5 ACN/H2O), each with 2.5 mM of ammonium acetate added. More details are provided in Smeltz et al..
Intrinsic hepatic clearance (Clint) and fraction unbound in plasma (fup) were calculated from the experimental point estimate data as described in Dobreniecki et al.. Steady-state concentrations (Css) were derived based on zero-order uptake of an assumed daily dose from the gut (assuming 100% intestinal bioavailability) but considering hepatic clearance and non-metabolic renal clearance. Renal clearance was calculated using the glomerular filtration rate (a species-dependent constant) and the fraction unbound in blood (fub), estimated by adjusting the experimental fup for blood/plasma partitioning. The Css calculations, along with underlying species-specific physiologic scalars, are detailed in SI Texts S6 and S7.

Data set [2] relates to human hepatocytes. More on the design: method as in Crizer et al. [59]. The note with it: ref Crizer et al. [59]; cited from earlier work.
Where [3] appears, read: blood (estimated from fup in plasma), Rat, fup adjusted for blood/plasma partitioning, read-out: fub (fraction unbound in blood).
Where [4] appears, read: Rat plasma, 10 µM, ultracentrifugation, read-out: fup (fraction unbound in plasma).

The structures appear in SMILES notation. Where two headings read alike, the source gives them in different places.

What is called fraction unbound is the share of the substance not bound to proteins or other matrix. With `O=S(=O)(O)C(F)(F)C(F)(F)C(F)(F)C(F)(F)C(F)(F)C(F)(F)F` [PFHxS, perfluorohexane sulfonic acid], the fraction unbound at 1 h, 10 µM in data set [1] (setting [3]) is 0.0014; in data set [1] (setting [4]), 0.0008. Also, in data set [1] (rat plasma), the “Plasma binding of PFHxS higher than PFHxSA” value is listed as 25%. For the same compound, the “Clhep (hepatic clearance)” value in data set [2] is on record as 0 ^2 L/h.

In the case of `NS(=O)(=O)C(F)(F)C(F)(F)C(F)(F)C(F)(F)C(F)(F)C(F)(F)F` [PFHxSA, Perfluorohexanesulfonamide], the fraction unbound at 1 h, 10 µM in data set [1] (setting [3]) was 0.0018; in data set [1] (setting [4]), 0.001. In addition, the “Clhep (hepatic clearance)” value in data set [2] is on record as 0 ^2 L/h.
